Assay [1] has as its target rat orexin 1 receptor (Rattus norvegicus (Rat), UniProt P56718). Kind of assay: Rat orexin 1 receptor radioligand binding (competitive binding, HEK293 membranes).
Assay [2] deals with human orexin 2 receptor (Homo sapiens (Human), UniProt O43614). The assay can be described thus: Human orexin 2 receptor radioligand binding ([3H]-EMPA competition, HEK293 membranes).
Assay [3] has as its target human orexin 1 receptor (Homo sapiens (Human), UniProt O43613). The assay can be described thus: Human orexin 1 receptor radioligand binding (competitive binding, CHO membranes).
The mark [4] stands for this setting: Table 2, further testing, averages from 2-20 runs, read-out: rOX1 Ki.
Setting [5] is: Table 2, further testing, averages from 2-20 runs, read-out: hOX2 Ki.
[6] abbreviates: Table 2, further testing, averages from 2-20 runs, read-out: hOX1 Ki.
Where [7] appears, read: rat orexin 1 receptor, Table 2, averages from between 2-20 runs, read-out: rOX1 Ki.
Where [8] appears, read: human orexin 2 receptor, Table 2, averages from between 2-20 runs, read-out: hOX2 Ki.
Where [9] appears, read: human orexin 1 receptor, Table 2, averages from between 2-20 runs, read-out: hOX1 Ki.

Read-outs that look alike come from different tables or passages of the source.

Sequence of human orexin 2 receptor (O43614 whole entry): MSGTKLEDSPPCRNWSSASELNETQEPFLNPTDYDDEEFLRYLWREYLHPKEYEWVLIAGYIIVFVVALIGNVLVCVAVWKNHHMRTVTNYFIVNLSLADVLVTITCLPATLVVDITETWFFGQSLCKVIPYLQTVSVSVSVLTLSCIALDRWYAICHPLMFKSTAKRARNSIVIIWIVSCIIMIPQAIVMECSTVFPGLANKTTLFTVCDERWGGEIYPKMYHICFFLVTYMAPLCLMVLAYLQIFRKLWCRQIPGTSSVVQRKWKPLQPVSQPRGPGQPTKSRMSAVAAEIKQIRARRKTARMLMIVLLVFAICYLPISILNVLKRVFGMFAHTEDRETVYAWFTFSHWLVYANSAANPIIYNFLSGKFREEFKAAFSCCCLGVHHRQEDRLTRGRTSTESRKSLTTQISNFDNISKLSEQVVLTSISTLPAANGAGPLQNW
Sequence of human orexin 1 receptor (O43613 whole entry): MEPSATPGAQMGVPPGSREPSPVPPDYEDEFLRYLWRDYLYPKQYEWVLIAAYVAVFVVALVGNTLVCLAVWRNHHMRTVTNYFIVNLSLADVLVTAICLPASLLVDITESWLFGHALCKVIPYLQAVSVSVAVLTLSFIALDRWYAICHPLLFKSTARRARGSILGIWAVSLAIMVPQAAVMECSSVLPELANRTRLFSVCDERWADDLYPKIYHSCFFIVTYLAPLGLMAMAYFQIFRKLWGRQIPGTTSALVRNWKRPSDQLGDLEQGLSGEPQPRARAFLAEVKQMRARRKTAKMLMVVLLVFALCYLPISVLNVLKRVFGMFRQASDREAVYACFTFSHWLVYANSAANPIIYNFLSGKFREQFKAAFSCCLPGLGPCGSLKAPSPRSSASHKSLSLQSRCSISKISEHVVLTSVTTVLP
Sequence of rat orexin 1 receptor (P56718 whole entry): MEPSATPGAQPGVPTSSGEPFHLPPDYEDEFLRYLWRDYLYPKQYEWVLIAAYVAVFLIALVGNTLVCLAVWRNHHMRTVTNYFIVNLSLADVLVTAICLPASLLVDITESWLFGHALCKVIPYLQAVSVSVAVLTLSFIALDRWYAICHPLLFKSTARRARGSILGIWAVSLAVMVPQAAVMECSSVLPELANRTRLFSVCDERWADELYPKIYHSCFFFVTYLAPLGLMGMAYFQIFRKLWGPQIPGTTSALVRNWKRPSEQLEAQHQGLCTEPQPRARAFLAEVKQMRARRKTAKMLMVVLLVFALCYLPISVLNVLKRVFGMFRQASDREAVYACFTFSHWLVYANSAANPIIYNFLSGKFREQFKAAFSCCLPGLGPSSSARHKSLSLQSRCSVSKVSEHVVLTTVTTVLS

Consider `O=C(c1cccc(F)c1-c1ncco1)N1[C@@H]2CC[C@H]1[C@H](Nc1ncc(C(F)(F)F)cc1F)C2` [Example 454, (3-fluoro-2-(oxazol-2-yl)phenyl)((1S,2R,4R)-2-((3-fluoro-5-(trifluoromethyl)pyridin-2-yl)amino)-7-azabicyclo[2.2.1]heptan-7-yl)methanone], for which the results for the Ki in assay [1] (setting [4]), in assay [2] (setting [5]) and in assay [3] (setting [6]) were 18 nM, 590 nM and 23 nM, respectively.

For the compound `Cc1cccc(C(=O)N2C3CCC2C(Oc2ccc(C(F)(F)F)cn2)C3)c1-n1nccn1` (racemic) [Example 422], the figures for the Ki in assay [1] (setting [7]), in assay [2] (setting [8]) and in assay [3] (setting [9]) were 91 nM, 2150 nM and 57 nM, respectively.

`Cc1cccc(C(=O)N2[C@@H]3CC[C@H]2[C@H](Nc2cnc(Br)cn2)C3)c1-n1nccn1` [Example 312, ((1S,2R,4R)-2-((5-bromopyrazin-2-yl)amino)-7-azabicyclo[2.2.1]heptan-7-yl)(3-methyl-2-(2H-1,2,3-triazol-2-yl)phenyl)methanone]: the Ki in assay [1] (read-out: rOX1 Ki) was 6 nM; in assay [2] (setting [8]) it was 360 nM; in assay [3] (read-out: hOX1 Ki), 9 nM.

Consider `O=C(c1c(F)cccc1-c1ncccn1)N1[C@@H]2CC[C@H]1[C@H](Nc1ncc(C(F)(F)F)cn1)C2` [Example 416, (2-fluoro-6-(pyrimidin-2-yl)phenyl)((1S,2R,4R)-2-((5-(trifluoromethyl)pyrimidin-2-yl)amino)-7-azabicyclo[2.2.1]heptan-7-yl)methanone], for which the Ki was 138 nM in assay [1] (setting [7]), 2100 nM in assay [2] (setting [8]) and 85 nM in assay [3] (setting [9]).

With `Cc1ccc(-n2nccn2)c(C(=O)N2[C@@H]3CC[C@H]2[C@H](Nc2ncc(C(F)(F)F)cc2F)C3)n1` [Example 451, ((1S,2R,4R)-2-((3-fluoro-5-(trifluoromethyl)pyridin-2-yl)amino)-7-azabicyclo[2.2.1]heptan-7-yl)(6-methyl-3-(2H-1,2,3-triazol-2-yl)pyridin-2-yl)methanone], the Ki was found to be 82 nM in assay [1] (read-out: rOX1 Ki), 517 nM in assay [2] (setting [5]) and 84 nM in assay [3] (read-out: hOX1 Ki).

On to `Cc1ccc(-c2ncccn2)c(C(=O)N2[C@@H]3CC[C@H]2[C@H](Nc2ncc(C(F)(F)F)cc2F)C3)n1` [Example 456, ((1S,2R,4R)-2-((3-fluoro-5-(trifluoromethyl)pyridin-2-yl)amino)-7-azabicyclo[2.2.1]heptan-7-yl)(6-methyl-3-(pyrimidin-2-yl)pyridin-2-yl)methanone], for which the Ki in assay [1] (read-out: rOX1 Ki) worked out at 68 nM; in assay [2] (setting [5]), 454 nM; in assay [3] (read-out: hOX1 Ki), 48 nM.

For the compound `O=C(c1cccc(F)c1-n1nccn1)N1[C@@H]2CC[C@H]1[C@H](Nc1ccc(C(F)F)cn1)C2` [Example 388, ((1S,2R,4R)-2-((5-(difluoromethyl)pyridin-2-yl)amino)-7-azabicyclo[2.2.1]heptan-7-yl)(3-fluoro-2-(2H-1,2,3-triazol-2-yl)phenyl)methanone], the figures for the Ki in assay [1] (setting [7]), in assay [2] (setting [8]) and in assay [3] (setting [9]) were 130 nM, 1100 nM and 118 nM, respectively.

Turning to `O=C(c1ccccc1-c1ncccn1)N1[C@@H]2CC[C@H]1[C@H](Nc1cnc(C(F)(F)F)cn1)C2` [Example 400, (2-(pyrimidin-2-yl)phenyl)((1S,2R,4R)-2-((5-(trifluoromethyl)pyrazin-2-yl)amino)-7-azabicyclo[2.2.1]heptan-7-yl)methanone], the Ki in assay [1] (read-out: rOX1 Ki) is 27 nM; in assay [2] (setting [8]), 571 nM; in assay [3] (read-out: hOX1 Ki), 19 nM.

With `O=C(c1cccc(F)c1-c1ncccn1)N1[C@@H]2CC[C@H]1[C@H](Nc1ncc(C(F)(F)F)cc1F)C2` [Example 382, (3-fluoro-2-(pyrimidin-2-yl)phenyl)((1S,2R,4R)-2-((3-fluoro-5-(trifluoromethyl)pyridin-2-yl)amino)-7-azabicyclo[2.2.1]heptan-7-yl)methanone], the Ki in assay [1] (setting [7]) came to 18 nM; in assay [2] (setting [8]), 1100 nM; in assay [3] (setting [9]), 15 nM.

Take `O=C(c1cccc(F)c1-c1ncccn1)N1[C@@H]2CC[C@H]1[C@H](Nc1ccc(C(F)F)cn1)C2` [Example 389, ((1S,2R,4R)-2-((5-(difluoromethyl)pyridin-2-yl)amino)-7-azabicyclo[2.2.1]heptan-7-yl)(3-fluoro-2-(pyrimidin-2-yl)phenyl)methanone]: the results for the Ki in assay [1] (setting [7]), in assay [2] (setting [8]) and in assay [3] (setting [9]) were 123 nM, 741 nM and 168 nM, respectively.

Consider `CN(c1ccc(C(F)(F)F)cn1)[C@@H]1C[C@H]2CC[C@@H]1N2C(=O)c1cccc(F)c1-c1ncccn1` [Example 377, (3-fluoro-2-(pyrimidin-2-yl)phenyl)((1S,2R,4R)-2-(methyl(5-(trifluoromethyl)pyridin-2-yl)amino)-7-azabicyclo[2.2.1]heptan-7-yl)methanone], for which the Ki in assay [1] (setting [7]) stood at 224 nM; in assay [2] (setting [8]) it was 9000 nM; in assay [3] (setting [9]) it was 141 nM.

Turning to `Cc1cccc(C(=O)N2[C@@H]3CC[C@H]2[C@H](Nc2ccc(Br)cn2)C3)c1-n1nccn1` [Example 306, ((1S,2R,4R)-2-((5-bromopyridin-2-yl)amino)-7-azabicyclo[2.2.1]heptan-7-yl)(3-methyl-2-(2H-1,2,3-triazol-2-yl)phenyl)methanone], the Ki in assay [1] (read-out: rOX1 Ki) stood at 11 nM; in assay [2] (setting [8]), 396 nM; in assay [3] (read-out: hOX1 Ki) it was 4 nM.

With `O=C(c1cccc(F)c1-c1ncccn1)N1[C@@H]2CC[C@H]1[C@H](Nc1ccc(C(F)(F)F)cn1)C2` [Example 279, (3-fluoro-2-(pyrimidin-2-yl)phenyl)((1S,2R,4R)-2-((5-(trifluoromethyl)pyridin-2-yl)amino)-7-azabicyclo[2.2.1]heptan-7-yl)methanone], the Ki is 18 nM in assay [1], 990 nM in assay [2] and 9 nM in assay [3].

Turning to `O=C(c1cc(F)ccc1-n1nccn1)N1[C@@H]2CC[C@H]1[C@H](Nc1ccc(C(F)(F)F)cn1)C2` [Example 369, (5-fluoro-2-(2H-1,2,3-triazol-2-yl)phenyl)((1S,2R,4R)-2-((5-(trifluoromethyl)pyridin-2-yl)amino)-7-azabicyclo[2.2.1]heptan-7-yl)methanone], the Ki in assay [1] (setting [7]) was 67 nM; in assay [2] (setting [8]), 629 nM; in assay [3] (setting [9]), 45 nM.

In the case of `O=C(c1ccccc1-c1ncc(F)cn1)N1[C@@H]2CC[C@H]1[C@H](Nc1ccc(C(F)(F)F)cn1)C2` [Example 374, (2-(5-fluoropyrimidin-2-yl)phenyl)((1S,2R,4R)-2-((5-(trifluoromethyl)pyridin-2-yl)amino)-7-azabicyclo[2.2.1]heptan-7-yl)methanone], the Ki in assay [1] (read-out: rOX1 Ki) stood at 41 nM; in assay [2] (setting [8]), 921 nM; in assay [3] (read-out: hOX1 Ki), 31 nM.

As for `O=C(c1ccccc1-c1ncc(F)cn1)N1C2CCC1C(Oc1ccc(C(F)(F)F)cn1)C2` (racemic) [Example 433], the Ki in assay [1] amounted to 107 nM; in assay [2] (setting [8]), 2500 nM; in assay [3] it was 73 nM.

With `O=C(c1cccc(F)c1-c1ncccn1)N1[C@@H]2CC[C@H]1[C@H](Nc1cnc(Br)cn1)C2` [Example 309, ((1S,2R,4R)-2-((5-bromopyrazin-2-yl)amino)-7-azabicyclo[2.2.1]heptan-7-yl)(3-fluoro-2-(pyrimidin-2-yl)phenyl)methanone], the results for the Ki in assay [1] (read-out: rOX1 Ki), in assay [2] (setting [8]) and in assay [3] (read-out: hOX1 Ki) were 19 nM, 1100 nM and 22 nM, respectively.

With `O=C(c1cccc(F)c1-c1ncc(F)cn1)N1[C@@H]2CC[C@H]1[C@H](Nc1ccc(C(F)(F)F)cn1)C2` [Example 375, (3-fluoro-2-(5-fluoropyrimidin-2-yl)phenyl)((1S,2R,4R)-2-((5-(trifluoromethyl)pyridin-2-yl)amino)-7-azabicyclo[2.2.1]heptan-7-yl)methanone], the Ki is 49 nM in assay [1] (read-out: rOX1 Ki), 2200 nM in assay [2] (setting [8]) and 89 nM in assay [3] (read-out: hOX1 Ki).

With `O=C(c1c(F)cccc1-c1ncco1)N1[C@@H]2CC[C@H]1[C@H](Nc1cnc(C(F)(F)F)cn1)C2` [Example 411, (2-fluoro-6-(oxazol-2-yl)phenyl)((1S,2R,4R)-2-((5-(trifluoromethyl)pyrazin-2-yl)amino)-7-azabicyclo[2.2.1]heptan-7-yl)methanone], the Ki in assay [1] (read-out: rOX1 Ki) worked out at 53 nM; in assay [2] (setting [8]), 622 nM; in assay [3] (read-out: hOX1 Ki) it was 31 nM.

Regarding `O=C(c1cccc(F)c1-c1ncco1)N1[C@@H]2CC[C@H]1[C@H](Nc1ccc(C(F)(F)F)cn1)C2` [Example 298, (3-fluoro-2-(oxazol-2-yl)phenyl)((1S,2R,4R)-2-((5-(trifluoromethyl)pyridin-2-yl)amino)-7-azabicyclo[2.2.1]heptan-7-yl)methanone], the inhibition constant (Ki) worked out at 18 nM in assay [1] (setting [7]), 500 nM in assay [2] (setting [8]) and 18 nM in assay [3] (setting [9]).

With `Cc1cccc(C(=O)N2[C@@H]3CC[C@H]2[C@H](Nc2ncc(Br)cn2)C3)c1-n1nccn1` [Example 318, ((1S,2R,4R)-2-((5-bromopyrimidin-2-yl)amino)-7-azabicyclo[2.2.1]heptan-7-yl)(3-methyl-2-(2H-1,2,3-triazol-2-yl)phenyl)methanone], the inhibition constant (Ki) stood at 9 nM in assay [1] (read-out: rOX1 Ki), 768 nM in assay [2] (setting [8]) and 13 nM in assay [3] (read-out: hOX1 Ki).

Turning to `O=C(c1cccc(F)c1-c1ncccn1)N1C2CCC1C(Nc1ccc(Br)cn1)C2` [Example 303, ((1S,2R,4R)-2-((5-bromopyridin-2-yl)amino)-7-azabicyclo[2.2.]heptan-7-yl)(3-fluoro-2-(pyrimidin-2-yl)phenyl)methanone], the Ki in assay [1] (read-out: rOX1 Ki) worked out at 22 nM; in assay [2] (setting [8]) it was 1300 nM; in assay [3] (read-out: hOX1 Ki), 16 nM.

In the case of `Cc1cccc(C(=O)N2[C@@H]3CC[C@H]2[C@H](Nc2ncc(C(F)(F)F)cc2F)C3)c1-c1ncccn1` [Example 462, ((1S,2R,4R)-2-((3-fluoro-5-(trifluoromethyl)pyridin-2-yl)amino)-7-azabicyclo[2.2.1]heptan-7-yl)(3-methyl-2-(pyrimidin-2-yl)phenyl)methanone], the Ki in assay [1] (setting [4]) was 18 nM; in assay [2] (setting [5]) it was 339 nM; in assay [3] (setting [6]) it was 31 nM.

Source of the values: patent publication US9637496B2, “Substituted 7-azabicycles and their use as orexin receptor modulators” (priority 2013, dated 2017).
